Results from patent US20240383905A1, “FGFR INHIBITORS AND METHODS OF USE THEREOF” (3H PHARMACEUTICALS CO., LTD., priority 2021, published 2024).

Tests used:
FGFR2 = molecular target: T1, FGFR2 (Homo sapiens, UniProt P21802); experiment: FGFR2 Biochemical Caliper Assay (KinEASE-TK kit); details: 0.07 nM FGFR2; compound incubated with protein 10 min, reaction 45 min at RT; read-out: FGFR2 Cliper IC50
T1 construct: purchased Carna 08-134

FGFR1 = molecular target: T2, FGFR1 (Homo sapiens, UniProt P11362); experiment: FGFR1 Biochemical Caliper Assay (KinEASE-TK kit); details: ratio FGFR1/FGFR2 of the biochemical assay
T2 construct: purchased Carna 08-133
Outline: (§1)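 KinEASE-TK HTRF readout: enzyme at 0.2 nM (FGFR1, FGFR3) preincubated 10 min at RT with 10-point 3-fold compound dilutions before TK-substrate/ATP start.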

FGFR3 = molecular target: T3, FGFR3 (Homo sapiens, UniProt P22607); experiment: FGFR3 Biochemical Caliper Assay (KinEASE-TK kit); details: ratio FGFR3/FGFR2 of the biochemical assay
T3 construct: purchased Carna 08-135
Outline: as §1

SNU16 cells = experiment: SNU16 Cancer Cell Line Proliferation Assay (CellTiter-Glo); type: cell-based; details: Homo sapiens, SNU-16, 72 h
Outline: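 SNU16 cells at 5000/well exposed to 9-point 3-fold serial compound dilutions (DMSO control) for 72 h at 37 °C, 5% CO2. Viability read by luminescence; IC50 calculated from dose-response.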

T2 sequence (P11362 22-822): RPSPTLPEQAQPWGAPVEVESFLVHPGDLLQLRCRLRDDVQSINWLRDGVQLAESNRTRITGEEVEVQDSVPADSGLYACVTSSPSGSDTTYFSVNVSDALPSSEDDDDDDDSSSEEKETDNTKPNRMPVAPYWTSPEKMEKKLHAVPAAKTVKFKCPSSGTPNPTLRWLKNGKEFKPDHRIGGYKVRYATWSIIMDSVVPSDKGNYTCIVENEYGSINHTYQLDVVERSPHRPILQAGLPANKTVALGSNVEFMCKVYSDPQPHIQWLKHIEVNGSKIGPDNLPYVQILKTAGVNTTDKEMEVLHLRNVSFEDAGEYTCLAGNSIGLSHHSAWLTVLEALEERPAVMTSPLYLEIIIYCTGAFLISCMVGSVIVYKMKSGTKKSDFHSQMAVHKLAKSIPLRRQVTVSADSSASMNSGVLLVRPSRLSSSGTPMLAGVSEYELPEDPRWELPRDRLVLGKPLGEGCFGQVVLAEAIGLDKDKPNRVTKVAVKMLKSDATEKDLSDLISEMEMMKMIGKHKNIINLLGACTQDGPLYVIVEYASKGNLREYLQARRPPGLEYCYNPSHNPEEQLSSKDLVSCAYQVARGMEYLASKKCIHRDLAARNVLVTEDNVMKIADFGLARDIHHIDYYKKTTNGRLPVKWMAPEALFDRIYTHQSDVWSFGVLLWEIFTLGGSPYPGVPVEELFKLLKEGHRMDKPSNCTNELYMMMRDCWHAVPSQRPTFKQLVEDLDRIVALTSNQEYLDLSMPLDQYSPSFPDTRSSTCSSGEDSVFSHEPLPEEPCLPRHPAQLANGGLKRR
T1 sequence (P21802 22-821): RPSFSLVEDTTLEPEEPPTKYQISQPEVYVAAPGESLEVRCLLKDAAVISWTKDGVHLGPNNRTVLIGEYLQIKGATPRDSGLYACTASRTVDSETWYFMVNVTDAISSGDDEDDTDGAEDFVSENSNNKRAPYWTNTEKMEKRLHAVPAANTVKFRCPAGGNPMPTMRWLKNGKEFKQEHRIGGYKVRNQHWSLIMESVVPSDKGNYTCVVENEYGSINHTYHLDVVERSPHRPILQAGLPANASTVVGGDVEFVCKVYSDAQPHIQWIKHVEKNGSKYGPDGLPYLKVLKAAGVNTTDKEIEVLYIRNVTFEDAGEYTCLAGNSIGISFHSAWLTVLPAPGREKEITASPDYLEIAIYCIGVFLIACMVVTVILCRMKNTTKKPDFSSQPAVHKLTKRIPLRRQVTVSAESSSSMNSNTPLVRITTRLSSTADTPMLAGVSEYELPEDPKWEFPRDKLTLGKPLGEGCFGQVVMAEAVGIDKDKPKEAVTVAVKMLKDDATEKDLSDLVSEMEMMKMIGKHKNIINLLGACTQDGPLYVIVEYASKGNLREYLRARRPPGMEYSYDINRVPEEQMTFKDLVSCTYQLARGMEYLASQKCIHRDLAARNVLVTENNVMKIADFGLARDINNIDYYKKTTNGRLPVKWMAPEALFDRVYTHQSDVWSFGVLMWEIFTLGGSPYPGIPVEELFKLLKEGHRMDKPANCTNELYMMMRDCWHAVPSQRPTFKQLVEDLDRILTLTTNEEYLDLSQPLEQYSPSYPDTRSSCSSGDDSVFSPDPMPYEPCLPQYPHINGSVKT
T3 sequence (P22607 23-806): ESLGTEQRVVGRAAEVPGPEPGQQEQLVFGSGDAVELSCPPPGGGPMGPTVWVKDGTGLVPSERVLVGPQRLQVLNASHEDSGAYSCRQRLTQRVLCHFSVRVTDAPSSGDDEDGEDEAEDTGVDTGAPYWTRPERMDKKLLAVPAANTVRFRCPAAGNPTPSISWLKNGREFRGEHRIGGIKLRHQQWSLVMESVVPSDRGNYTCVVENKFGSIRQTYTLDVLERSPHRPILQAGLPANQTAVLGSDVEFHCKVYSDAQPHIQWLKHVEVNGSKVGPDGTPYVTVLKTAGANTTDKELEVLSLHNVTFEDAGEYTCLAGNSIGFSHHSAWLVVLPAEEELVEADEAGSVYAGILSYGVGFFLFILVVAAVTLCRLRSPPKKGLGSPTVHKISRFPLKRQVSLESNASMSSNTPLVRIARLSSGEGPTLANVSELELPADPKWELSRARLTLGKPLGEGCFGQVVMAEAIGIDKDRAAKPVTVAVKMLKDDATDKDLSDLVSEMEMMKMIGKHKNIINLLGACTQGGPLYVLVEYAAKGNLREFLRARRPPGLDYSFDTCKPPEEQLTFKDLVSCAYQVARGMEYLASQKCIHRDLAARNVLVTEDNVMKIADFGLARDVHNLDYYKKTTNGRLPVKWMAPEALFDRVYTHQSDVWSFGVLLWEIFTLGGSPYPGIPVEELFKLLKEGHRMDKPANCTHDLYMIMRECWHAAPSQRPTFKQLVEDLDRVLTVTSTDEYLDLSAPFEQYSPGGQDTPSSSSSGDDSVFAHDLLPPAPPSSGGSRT

Structure (SMILES) | IC50 (FGFR2) [nM] | Selectivity FGFR1/FGFR2 (FGFR1) | Selectivity FGFR3/FGFR2 (FGFR3) | IC50 (SNU16 cells) [nM]
C=C(C)C(=O)Nc1ccc(-c2c(-c3ccc(Oc4cccc(C)n4)cc3)c3c(N)ncc(C#N)c3n2C)c(F)c1 [Compound 468, N-(4-(4-amino-7-cyano-1-methyl-3-(4-((6-methylpyridin-2-yl)oxy)phenyl)-1H-pyrrolo[3,2-c]pyridin-2-yl)-3-fluorophenyl) methacrylamide] | > 10 | A+ (Selectivity of FGFR1/FGFR2 greater or equal to 500) | A+ (Selectivity of FGFR3/FGFR2 greater or equal to 150) | ≤ 10
C=C(C)C(=O)Nc1ccc(-c2c(-c3ccc(Oc4nccc(C)n4)cc3)c3c(N)ncc(C#N)c3n2C)c(Cl)c1 [Compound 474, N-(4-(4-amino-7-cyano-1-methyl-3-(4-((4-methylpyrimidin-2-yl)oxy)phenyl)-1H-pyrrolo[3,2-c]pyridin-2-yl)-3-chlorophenyl)methacrylamide] | 5 to 10 | A+ (Selectivity of FGFR1/FGFR2 greater or equal to 500) | A+ (Selectivity of FGFR3/FGFR2 greater or equal to 150) | ≤ 10
C=C(F)C(=O)Nc1ccc(-c2nn3ncnc(N)c3c2-c2ccc(C(=O)NC3(C(F)(F)F)CC3)c(OC)c2)c(F)c1 [Compound 356] | < 5 | A (Selectivity of FGFR1/FGFR2 less than 500 but greater than or equal to 300) | A (Selectivity of FGFR3/FGFR2 less than 150 but greater than or equal to 100) | ≤ 10
C=CC(=O)Nc1ccc(-c2nn3ncnc(N)c3c2-c2ccc(C(=O)NC3CCC3)c(OC)c2)cc1 [Compound 26, 4-(6-(4-acrylamidophenyl)-4-aminopyrazolo[5,1-f][1,2,4]triazin-5-yl)-N-cyclobutyl-2-methoxybenzamide] | < 5 | A (Selectivity of FGFR1/FGFR2 less than 500 but greater than or equal to 300) | B (Selectivity of FGFR3/FGFR2 less than 100 but greater than or equal to 25) | ≤ 10
C=CC(=O)Nc1ccc(-c2c(-c3ccc(Oc4ncccn4)c(F)c3)c3c(N)ncc(C#N)c3n2C)cc1 [Compound 443, N-(4-(4-amino-7-cyano-3-(3-fluoro-4-(pyrimidin-2-yloxy)phenyl)-1-methyl-1H-pyrrolo[3,2-c]pyridin-2-yl)phenyl)acrylamide] | < 5 | C (Selectivity of FGFR1/FGFR2 less than 200 but greater than or equal to 100) | B (Selectivity of FGFR3/FGFR2 less than 100 but greater than or equal to 25) | ≤ 10
C=C(F)C(=O)Nc1ccc(-c2nn3ncnc(N)c3c2-c2ccc(C(=O)NC3CCC3)c(OC)c2)cc1 [Compound 95, 4-(4-amino-6-(4-(2-fluoroacrylamido)phe-nyl)pyrazolo[5,1-f][1,2,4]triazin-5-yl)-N-cyclobutyl-2-methoxybenzamide] | > 10 | A+ (Selectivity of FGFR1/FGFR2 greater or equal to 500) | A+ (Selectivity of FGFR3/FGFR2 greater or equal to 150) | ≤ 10
C=C(F)C(=O)Nc1ccc(-c2nn3ncnc(N)c3c2-c2ccc(C(=O)NCC(F)F)c(OC)c2)c(F)c1 [Compound 289] | > 10 | C (Selectivity of FGFR1/FGFR2 less than 200 but greater than or equal to 100) | B (Selectivity of FGFR3/FGFR2 less than 100 but greater than or equal to 25) | ≤ 10
C=CC(=O)Nc1ccc(-c2nn3ncnc(N)c3c2-c2ccc(Oc3nccc(N)n3)c(F)c2)cc1 [Compound 428] | > 10 | A+ (Selectivity of FGFR1/FGFR2 greater or equal to 500) | A+ (Selectivity of FGFR3/FGFR2 greater or equal to 150) | 10 to 50
C=CC(=O)Nc1ccc(-c2nn3ncnc(N)c3c2-c2ccc(C(=O)NC3CC(F)C3)c(OC)c2)cc1 (stereo not shown) [Compound 184, 4-(6-(4-acrylamidophenyl)-4-aminopyrazolo[5,1-f][1,2,4]triazin-5-yl)-N-(3-fluorocyclobutyl)-2-methoxybenzamide] | < 5 | A (Selectivity of FGFR1/FGFR2 less than 500 but greater than or equal to 300) | A+ (Selectivity of FGFR3/FGFR2 greater or equal to 150) | ≤ 10
C=C(F)C(=O)Nc1ccc(-c2nn3ncnc(N)c3c2-c2ccc(C(=O)NCC3CC3)c(OC)c2)cc1 [Compound 163] | < 5 | A+ (Selectivity of FGFR1/FGFR2 greater or equal to 500) | A+ (Selectivity of FGFR3/FGFR2 greater or equal to 150) | ≤ 10
C=C(F)C(=O)Nc1ccc(-c2c(-c3ccc(C(=O)NC4CC4)c(OC)c3)c3c(N)ncc(C#N)c3n2C)c(OC)c1 [Compound 171, 4-(4-amino-7-cyano-2-(4-(2-fluoroacrylamido)-2-methoxyphenyl)-1-methyl-1H-pyrrolo[3,2-c]pyridin-3-yl)-N-cyclopropyl-2-methoxybenzamide] | < 5 | C (Selectivity of FGFR1/FGFR2 less than 200 but greater than or equal to 100) | B (Selectivity of FGFR3/FGFR2 less than 100 but greater than or equal to 25) | ≤ 10
C=CC(=O)Nc1ccc(-c2c(-c3ccc(C(=O)NCC(F)F)c(OC)c3)c3c(N)ncc(C#N)c3n2C)cc1 [Compound 198, 4-(2-(4-acrylamidophenyl)-4-amino-7-cyano-1-methyl-1H-pyrrolo[3,2-c]pyridin-3-yl)-N-(2,2-difluoroethyl)-2-methoxybenzamide] | < 5 | A (Selectivity of FGFR1/FGFR2 less than 500 but greater than or equal to 300) | A+ (Selectivity of FGFR3/FGFR2 greater or equal to 150) | ≤ 10
C=CC(=O)Nc1ccc(-c2nn3ncnc(N)c3c2-c2ccc(OC3CCCCC3)cc2)cc1 [Compound 228, N-(4-(4-amino-5-(4-(cyclohexyloxy)phenyl)pyrazolo[5,1-f][1,2,4]triazin-6-yl)phenyl)acrylamide] | 5 to 10 | A+ (Selectivity of FGFR1/FGFR2 greater or equal to 500) | A+ (Selectivity of FGFR3/FGFR2 greater or equal to 150) | ≤ 10
C=CC(=O)Nc1ccc(-c2nn3ncnc(N)c3c2-c2ccc(C(=O)NCC(F)(F)F)c(OC)c2)cc1 [Compound 42, 4-(6-(4-acrylamidophenyl)-4-aminopyrazolo[5,1-f] [1,2,4]triazin-5-yl)-2-methoxy-N-(2,2,2-trifluoroethyl)benzamide] | < 5 | A (Selectivity of FGFR1/FGFR2 less than 500 but greater than or equal to 300) | A (Selectivity of FGFR3/FGFR2 less than 150 but greater than or equal to 100) | ≤ 10
C=C(F)C(=O)Nc1ccc(-c2nn3ncnc(N)c3c2-c2ccc(C(=O)NC34CC(C3)C4)c(OC)c2)c(F)c1 [Compound 357, 4-(4-amino-6-(2-fluoro-4-(2-fluoroacryl amido)phenyl)pyrazolo[5,1-f][1,2,4]triazin-5-yl)-N-(bicyclo[1.1.1]pentan-1-yl)-2-methoxybenzamide] | < 5 | A (Selectivity of FGFR1/FGFR2 less than 500 but greater than or equal to 300) | A+ (Selectivity of FGFR3/FGFR2 greater or equal to 150) | ≤ 10
C=C(F)C(=O)Nc1ccc(-c2nn3ncnc(N)c3c2-c2ccc(C(=O)NC34CC(F)(C3)C4)c(OC)c2)c(OC)c1 [Compound 416, 4-(4-amino-6-(4-(2-fluoroacrylamido)-2-methoxyphenyl)pyrazolo[5,1-f][1,2,4]triazin-5-yl)-N-(3-fluorobicyclo[1.1.1]pentan-1-yl)-2-methoxybenzamide] | < 5 | B (Selectivity of FGFR1/FGFR2 less than 300 but greater than or equal to 200) | B (Selectivity of FGFR3/FGFR2 less than 100 but greater than or equal to 25) | ≤ 10
C=CC(=O)Nc1ccc(-c2c(-c3ccc(C(=O)NC4CCCC4)c(OC)c3)c3c(N)ncc(C#N)c3n2C)cc1 [Compound 109, 4-(2-(4-acrylamidophenyl)-4-amino-7-cyano-1-methyl-1H-pyrrolo[3,2-c]pyridin-3-yl)-N-cyclopentyl-2-methoxybenzamide] | < 5 | A+ (Selectivity of FGFR1/FGFR2 greater or equal to 500) | B (Selectivity of FGFR3/FGFR2 less than 100 but greater than or equal to 25) | ≤ 10
C=C(F)C(=O)Nc1ccc(-c2nn3ncnc(N)c3c2-c2ccc(C(=O)NCC(F)(F)F)c(OC)c2)c(F)c1 [Compound 100, 4-(4-amino-6-(2-fluoro-4-(2-fluoroacrylamido)phenyl)pyrazolo[5,1-f][1,2,4]triazin-5-yl)-2-methoxy-N-(2,2,2-trifluoroethyl)benzamide] | < 5 | A+ (Selectivity of FGFR1/FGFR2 greater or equal to 500) | A+ (Selectivity of FGFR3/FGFR2 greater or equal to 150) | ≤ 10
C=C(F)C(=O)Nc1ccc(-c2nn3ncnc(N)c3c2-c2ccc(C(=O)NCC(F)(F)F)c(OC)c2)c(OC)c1 [Compound 102, 4-(4-amino-6-(4-(2-fluoroacrylamido)-2-methoxyphenyl)pyrazolo[5,1-f][1,2,4]triazin-5-yl)-2-methoxy-N-(2,2,2-trifluoroethyl)benzamide] | > 10 | B (Selectivity of FGFR1/FGFR2 less than 300 but greater than or equal to 200) | B (Selectivity of FGFR3/FGFR2 less than 100 but greater than or equal to 25) | ≤ 10
